Measured values reported in ChEMBL document CHEMBL4765323, “Design, synthesis, and biological evaluation of novel miconazole analogues containing selenium as potent antifungal agents” (Eur J Med Chem, 2020).
Converted amounts (≈) assume the structure as drawn.

Experiments:
Candida albicans [1] = assay: Inhibition of CYP51 in azole-resistant Candida albicans ATCC […] assessed as Lanosterol level at 0.03125 ug/ml incubated for 16 hrs by LC-MS analysis relative to control; parameters: scale not given: the % may be the effect or the level left; details: dose 0.03125 µg/ml
Candida albicans [2] = assay: Antibiofilm activity against FCZ-Resistant Candida albicans CPCC400616 assessed as sessile minimum inhibitory concentration of biofilm formation at 80% after 24 hrs by XTT assay; assay type: functional
Candida albicans [3] = assay: Inhibition of CYP51 in azole-resistant Candida albicans ATCC […] assessed as Obtusifoliol level at 0.125 ug/ml incubated for 16 hrs by LC-MS analysis relative to control; parameters: scale not given: the % may be the effect or the level left; details: dose 0.125 µg/ml
Candida albicans [4] = assay: Inhibition of CYP51 in azole-resistant Candida albicans ATCC […] assessed as Obtusifoliol level at 0.03125 ug/ml incubated for 16 hrs by LC-MS analysis relative to control; parameters: scale not given: the % may be the effect or the level left; details: dose 0.03125 µg/ml
Candida albicans [5] = assay: Antibiofilm activity against FCZ-Resistant Candida albicans CPCC400616 assessed as sessile minimum inhibitory concentration of biofilm formation at 80% after 6 hrs by XTT assay; assay type: functional
Candida albicans [6] = assay: Antibiofilm activity against FCZ-Resistant Candida albicans CPCC400616 assessed as sessile minimum inhibitory concentration of biofilm formation at 50% after 3 hrs by XTT assay; assay type: functional
Candida albicans [7] = assay: Inhibition of CYP51 in azole-resistant Candida albicans ATCC […] assessed as Lanosterol level at 0.125 ug/ml incubated for 16 hrs by LC-MS analysis relative to control; parameters: scale not given: the % may be the effect or the level left; details: dose 0.125 µg/ml
Candida albicans [8] = assay: Antifungal activity against Candida albicans CPCC400616 measured after 24 hrs by micro-broth dilution assay; assay type: functional
Candida albicans [9] = assay: Inhibition of CYP51 in azole-resistant Candida albicans ATCC […] assessed as Obtusifoliol level at 0.5 ug/ml incubated for 16 hrs by LC-MS analysis relative to control; parameters: scale not given: the % may be the effect or the level left; details: dose 0.5 µg/ml
[10] = Ratio of hemolysis activity in rabbit RBC to MIC for Candida albicans; assay type: toxicity; details: rabbit red blood cells (RBC)
Cryptococcus neoformans = assay: Antifungal activity against Cryptococcus neoformans CGMCC2.3161 measured after 72 hrs by micro-broth dilution assay; assay type: functional
Candida albicans [11] = assay: Antibiofilm activity against FCZ-Resistant Candida albicans CPCC400616 assessed as sessile minimum inhibitory concentration of biofilm formation at 50% after 24 hrs by XTT assay; assay type: functional
Candida albicans [12] = assay: Antibiofilm activity against FCZ-Resistant Candida albicans CPCC400616 assessed as sessile minimum inhibitory concentration of biofilm formation at 80% after 3 hrs by XTT assay; assay type: functional
Candida albicans [13] = assay: Inhibition of CYP51 in azole-resistant Candida albicans ATCC […] assessed as Eburicol level at 0.125 ug/ml incubated for 16 hrs by LC-MS analysis relative to control; parameters: scale not given: the % may be the effect or the level left; details: dose 0.125 µg/ml
Candida albicans [14] = assay: Inhibition of CYP51 in azole-resistant Candida albicans ATCC […] assessed as Lanosterol level at 0.5 ug/ml incubated for 16 hrs by LC-MS analysis relative to control; parameters: scale not given: the % may be the effect or the level left; details: dose 0.5 µg/ml
Aspergillus fumigatus = assay: Antifungal activity against Aspergillus fumigatus CGMCC 3.7795 measured after 72 hrs by micro-broth dilution assay; assay type: functional
Candida albicans [15] = assay: Fungicidal activity against Candida albicans CPCC400616 measured after 48 hrs; assay type: functional
Candida albicans [16] = assay: Inhibition of CYP51 in azole-resistant Candida albicans ATCC […] assessed as Eburicol level at 0.03125 ug/ml incubated for 16 hrs by LC-MS analysis relative to control; parameters: scale not given: the % may be the effect or the level left; details: dose 0.03125 µg/ml
Candida albicans [17] = assay: Inhibition of CYP51 in azole-resistant Candida albicans ATCC […] assessed as ergosterol level at 2 ug/ml incubated for 16 hrs by LC-MS analysis relative to control; parameters: scale not given: the % may be the effect or the level left; details: dose 2.0 µg/ml
Candida albicans [18] = assay: Inhibition of CYP51 in azole-resistant Candida albicans ATCC […] assessed as ergosterol level at 0.5 ug/ml incubated for 16 hrs by LC-MS analysis relative to control; parameters: scale not given: the % may be the effect or the level left; details: dose 0.5 µg/ml
Candida albicans [19] = assay: Inhibition of CYP51 in azole-resistant Candida albicans ATCC […] assessed as Lanosterol level at 8 ug/ml incubated for 16 hrs by LC-MS analysis relative to control; parameters: scale not given: the % may be the effect or the level left; details: dose 8.0 µg/ml
Candida albicans [20] = assay: Inhibition of CYP51 in azole-resistant Candida albicans ATCC […] assessed as inhibition of ergosterol biosynthesis by measuring ergosterol content at 8 ug/ml incubated for 16 hrs by LC-MS analysis relative to control; parameters: scale not given: the % may be the effect or the level left; details: dose 8.0 µg/ml
Candida albicans [21] = assay: Inhibition of CYP51 in azole-resistant Candida albicans ATCC […] assessed as ergosterol level at 0.125 ug/ml incubated for 16 hrs by LC-MS analysis relative to control; parameters: scale not given: the % may be the effect or the level left; details: dose 0.125 µg/ml
Candida parapsilosis = assay: Antifungal activity against Candida parapsilosis ATCC 22019 measured after 24 hrs by micro-broth dilution assay; assay type: functional; details: Lodderomyces parapsilosis
Candida albicans [22] = assay: Inhibition of CYP51 in azole-resistant Candida albicans ATCC […] assessed as Eburicol level at 2 ug/ml incubated for 16 hrs by LC-MS analysis relative to control; parameters: scale not given: the % may be the effect or the level left; details: dose 2.0 µg/ml
Candida albicans [23] = assay: Antibiofilm activity against FCZ-Resistant Candida albicans CPCC400616 assessed as sessile minimum inhibitory concentration of biofilm formation at 50% after 1.5 hrs by XTT assay; assay type: functional
[24] = Ratio of MFC for fungicidal activity against Candida albicans CPCC400616 to MIC for Antifungal activity against Candida albicans CPCC400616; assay type: functional; details: time 24 hrs
Candida albicans [25] = assay: Inhibition of CYP51 in azole-resistant Candida albicans ATCC […] assessed as ergosterol level at 0.03125 ug/ml incubated for 16 hrs by LC-MS analysis relative to control; parameters: scale not given: the % may be the effect or the level left; details: dose 0.03125 µg/ml
[Candida] zeylanoides = Antifungal activity against Candida zeylanoides CMGCC2.3739 measured after 24 hrs by micro-broth dilution assay; assay type: functional; details: Dujonia zeylanoides
Candida albicans [26] = assay: Antibiofilm activity against FCZ-Resistant Candida albicans CPCC400616 assessed as sessile minimum inhibitory concentration of biofilm formation at 80% after 1.5 hrs by XTT assay; assay type: functional
Pichia kudriavzevii = assay: Antifungal activity against Candida krusei AS 2.1045 measured after 24 hrs by micro-broth dilution assay; assay type: functional
Candida albicans [27] = assay: Antifungal activity against Candida albicans ATCC SC5314 measured after 24 hrs by micro-broth dilution assay; assay type: functional
Candida albicans [28] = assay: Inhibition of CYP51 in azole-resistant Candida albicans ATCC […] assessed as Lanosterol level at 2 ug/ml incubated for 16 hrs by LC-MS analysis relative to control; parameters: scale not given: the % may be the effect or the level left; details: dose 2.0 µg/ml
Candida albicans [29] = assay: Antibiofilm activity against FCZ-Resistant Candida albicans CPCC400616 assessed as sessile minimum inhibitory concentration of biofilm formation at 50% after 6 hrs by XTT assay; assay type: functional
Candida albicans [30] = assay: Inhibition of CYP51 in azole-resistant Candida albicans ATCC […] assessed as Eburicol level at 0.5 ug/ml incubated for 16 hrs by LC-MS analysis relative to control; parameters: scale not given: the % may be the effect or the level left; details: dose 0.5 µg/ml
Candida albicans [31] = assay: Inhibition of CYP51 in azole-resistant Candida albicans ATCC […] assessed as Obtusifoliol level at 8 ug/ml incubated for 16 hrs by LC-MS analysis relative to control; parameters: scale not given: the % may be the effect or the level left; details: dose 8.0 µg/ml
Nakaseomyces glabratus = assay: Antifungal activity against clinical isolate Candida glabrata measured after 24 hrs by micro-broth dilution assay; assay type: functional
Candida albicans [32] = assay: Inhibition of CYP51 in azole-resistant Candida albicans ATCC […] assessed as Obtusifoliol level at 2 ug/ml incubated for 16 hrs by LC-MS analysis relative to control; parameters: scale not given: the % may be the effect or the level left; details: dose 2.0 µg/ml
Candida albicans [33] = assay: Inhibition of CYP51 in azole-resistant Candida albicans ATCC […] assessed as Eburicol level at 8 ug/ml incubated for 16 hrs by LC-MS analysis relative to control; parameters: scale not given: the % may be the effect or the level left; details: dose 8.0 µg/ml

Q: For `Clc1ccc(COC(Cn2ccnc2)c2ccc(Cl)cc2Cl)c(Cl)c1` (centres undefined) [MICONAZOLE], which Activity (Candida albicans [1]) is on record?
A: 12.4%

Q: What about the Activity (Candida albicans [2]) of the same compound?
A: >128 µg/mL

Q: And the Activity (Candida albicans [3])?
A: 7.2%

Q: What about the Activity (Candida albicans [4]) of the same compound?
A: 2.9%

Q: And the Activity (Candida albicans [5])?
A: >128 µg/mL

Q: And the Activity (Candida albicans [6])?
A: 32 µg/mL

Q: And the Activity (Candida albicans [7])?
A: 14.1%

Q: And the MIC (Candida albicans [8])?
A: 0.25 µg/mL (≈ 0.601 µM)

Q: And the Activity (Candida albicans [9])?
A: 6.1%

Q: And the selectivity ratio [10]?
A: 8

Q: And the MIC (Cryptococcus neoformans)?
A: 0.5 µg/mL (≈ 1.2 µM)

Q: What about the Activity (Candida albicans [11]) of the same compound?
A: >128 µg/mL

Q: What about the Activity (Candida albicans [12]) of the same compound?
A: 128 µg/mL

Q: And the Activity (Candida albicans [13])?
A: 63.5%

Q: And the Activity (Candida albicans [14])?
A: 8.9%

Q: And the MIC (Aspergillus fumigatus)?
A: 2 µg/mL (≈ 4.81 µM)

Q: And the MIC (Candida albicans [15])?
A: 2 µg/mL (≈ 4.81 µM)

Q: What about the Activity (Candida albicans [16]) of the same compound?
A: 2.9%

Q: What about the Activity (Candida albicans [17]) of the same compound?
A: 5.49%

Q: What about the Activity (Candida albicans [18]) of the same compound?
A: 8.3%

Q: And the Activity (Candida albicans [19])?
A: 7.8%

Q: What about the Activity (Candida albicans [20]) of the same compound?
A: 0%

Q: And the Activity (Candida albicans [21])?
A: 7.3%

Q: What about the MIC (Candida parapsilosis) of the same compound?
A: 0.25 µg/mL (≈ 0.601 µM)

Q: And the Activity (Candida albicans [22])?
A: 80.7%

Q: And the Activity (Candida albicans [23])?
A: 16 µg/mL

Q: And the MFC/MIC ratio [24]?
A: 8

Q: And the Activity (Candida albicans [25])?
A: 11.3%

Q: What about the MIC ([Candida] zeylanoides) of the same compound?
A: 1 µg/mL (≈ 2.4 µM)

Q: And the Activity (Candida albicans [26])?
A: 128 µg/mL

Q: What about the MIC (Pichia kudriavzevii) of the same compound?
A: 0.5 µg/mL (≈ 1.2 µM)

Q: And the MIC (Candida albicans [27])?
A: 0.03 µg/mL (≈ 0.0721 µM)

Q: What about the Activity (Candida albicans [28]) of the same compound?
A: 6.4%

Q: What about the Activity (Candida albicans [29]) of the same compound?
A: >128 µg/mL

Q: What about the Activity (Candida albicans [30]) of the same compound?
A: 64.8%

Q: What about the Activity (Candida albicans [31]) of the same compound?
A: 14.6%

Q: What about the MIC (Nakaseomyces glabratus) of the same compound?
A: 0.5 µg/mL (≈ 1.2 µM)

Q: What about the Activity (Candida albicans [32]) of the same compound?
A: 9.7%

Q: What about the Activity (Candida albicans [33]) of the same compound?
A: 74.2%
